Common to all, as to settings: stereoisomer not certain
Data set [1] can be described thus: RP, Thermo Scientific Acclaim RSLC 120 C18, 100 × 2.1 mm, 2.2 µm, 30 °C, 0.2 mL/min, estimated dead time 1.1 min; A: water + 0.1% formic acid, pH 2.6; B: methanol + 0.1% formic acid, pH 2.6; gradient (min/%B) 0/10 4/50 17/95 25/95 25.1/10 30/10.
Data set [2] in a line: RP, Waters ACQUITY UPLC BEH C18, 100 × 2.1 mm, 1.7 µm, 30 °C, 0.35 mL/min, estimated dead time 0.63 min; A: water + 0.01% formic acid + 5 mM ammonium formate, pH 3.71; B: acetonitrile + 0.01% formic acid, pH 3.71; gradient (min/%B) 0/10 3/10 22/100 30/100 30.1/10 40/10.
A short description of data set [3]: RP, Waters ACQUITY UPLC BEH C18, 100 × 2.1 mm, 1.7 µm, 35 °C, 0.35 mL/min, estimated dead time 0.63 min; A: water + 0.01% formic acid + 5 mM ammonium formate, pH 3.71; B: acetonitrile + 0.01% formic acid, pH 3.71; gradient (min/%B) 0/5 0.5/5 16/95 16.1/99 19/99 19.1/5 21/5.
Data set [4] can be described thus: RP, Thermo Scientific Acclaim RSLC 120 C18, 100 × 2.1 mm, 2.2 µm, 30 °C, 0.2 mL/min, estimated dead time 1.1 min; A: 90% water + 10% methanol + 0.01% formic acid + 5 mM ammonium formate, pH 3.61; B: methanol + 0.01% formic acid + 5 mM ammonium formate, pH 3.61; gradient (min/%B) 0/1 1/1 2/39 13/99.9 15/99.9 15.1/1 20.1/1.

Take `CNC(=O)ON=C(C)C(C)SC` (stereo not drawn) [Butocarboxim]: the LC retention time in data set [1] is 6.82 min; in data set [2], 7.64 min; in data set [3], 5.7 min; in data set [4], 6.07 min.

Consider `Cn1c(=O)c2c(ncn2C)n(C)c1=O` [Caffeine], for which the LC retention time in data set [1] was 4.69 min; in data set [2], 2.43 min; in data set [3] it was 3.08 min; in data set [4], 4.23 min.

For the compound `CCN1CCN(C(=O)NC(C(=O)NC2C(=O)N3C(C(=O)O)=C(CSc4nnnn4C)CSC23)c2ccc(O)cc2)C(=O)C1=O` (stereo not drawn) [Cefoperazone], the LC retention time in data set [1] was 5.37 min; in data set [2], 6.08 min; in data set [3], 4.19 min; in data set [4], 4.36 min.

For `CCN(CC)C(=O)Nc1ccc(OCC(O)CNC(C)(C)C)c(C(C)=O)c1` (stereo not drawn) [Celiprolol], the LC retention time in data set [1] is 5.29 min; in data set [2], 7.46 min; in data set [3], 5.34 min; in data set [4], 5.24 min.

On to `CC(C)NCC(O)c1ccc(N)c(C#N)c1` (stereo not drawn) [Cimaterol], for which the LC retention time in data set [1] is 2.51 min; in data set [2], 1.48 min; in data set [3], 2.1 min; in data set [4] it was 2.99 min.

Consider `CN=C(NC#N)NCCSCc1nc[nH]c1C` [Cimetidine], for which the LC retention time in data set [1] is 2.88 min; in data set [2] it was 1.54 min; in data set [3], 2.11 min; in data set [4] it was 3.24 min.

On to `O=C(O)c1cn(C2CC2)c2cc(N3CCNCC3)c(F)cc2c1=O` [Ciprofloxacin], for which the LC retention time in data set [1] was 4.46 min; in data set [2], 5.54 min; in data set [3], 4.13 min; in data set [4], 4.42 min.

As to `COc1cc2c(c(OC)c1OC)-c1ccc(OC)c(=O)cc1C(NC(C)=O)CC2` (stereo not drawn) [Colchicine], the LC retention time in data set [1] was 7.17 min; in data set [2], 8.29 min; in data set [3] it was 5.99 min; in data set [4], 6.43 min.

On to `CN1C(=O)CCC1c1cccnc1` (stereo not drawn) [Cotinine], for which the LC retention time in data set [1] is 1.71 min; in data set [2] it was 1.41 min; in data set [3] it was 2.06 min; in data set [4], 3.75 min.

For the compound `Nc1nc(N)nc(NC2CC2)n1` [Cyromazine], the LC retention time in data set [1] was 2.06 min; in data set [2], 1.06 min; in data set [3], 1.23 min; in data set [4], 2.78 min.

Consider `COc1ccc(Cc2cnc(N)nc2N)cc1OC` [Diaveridine], for which the LC retention time was 3.67 min in data set [1], 3.36 min in data set [2], 3.48 min in data set [3] and 3.88 min in data set [4].

`COP(=O)(OC)OC=C(Cl)Cl` [Dichlorvos]: the LC retention time in data set [1] was 8.02 min; in data set [2] it was 9.14 min; in data set [3], 6.79 min; in data set [4] it was 7 min.

On to `CCSCc1ccccc1OC(=O)NC` [Ethiofencarb], for which the LC retention time in data set [1] is 9.05 min; in data set [2], 10.7 min; in data set [3], 8.02 min; in data set [4], 7.7 min.

For `COC(=O)Nc1nc2ccc(Sc3ccccc3)cc2[nH]1` [Fenbendazole], the LC retention time in data set [1] was 10.9 min; in data set [2], 12.2 min; in data set [3], 9.17 min; in data set [4] it was 10.3 min.

`CC1CCc2cc(F)cc3c(=O)c(C(=O)O)cn1c23` (stereo not drawn) [Flumequine]: the LC retention time was 8.57 min in data set [1], 9.84 min in data set [2], 7.28 min in data set [3] and 7.46 min in data set [4].

As to `CC(C)Cc1ccc(C(C)C(=O)O)cc1` (stereo not drawn) [Ibuprofen], the LC retention time in data set [1] is 13.1 min; in data set [2] it was 14 min; in data set [3], 10.7 min; in data set [4], 10.7 min.

As to `COCC(NC(C)=O)C(=O)NCc1ccccc1` (stereo not drawn) [Lacosamide], the LC retention time in data set [1] is 5.79 min; in data set [2] it was 5.76 min; in data set [3], 4.46 min; in data set [4], 5.09 min.

`Nc1nnc(-c2cccc(Cl)c2Cl)c(N)n1` [Lamotrigine]: the LC retention time in data set [1] was 5.17 min; in data set [2], 6.41 min; in data set [3] it was 4.66 min; in data set [4], 5.31 min.

Turning to `CCC(C(N)=O)N1CCCC1=O` (stereo not drawn) [Levetiracetam], the LC retention time in data set [1] was 3.89 min; in data set [2], 1.68 min; in data set [3], 2.43 min; in data set [4] it was 3.74 min.

As for `CCNCC(=O)Nc1c(C)cccc1C` [Lidocaine-Nor], the LC retention time was 3.97 min in data set [1], 3.59 min in data set [2], 3.56 min in data set [3] and 4.33 min in data set [4].

For `CCN(CC)CC(=O)Nc1c(C)cccc1C` [Lidocaine], the LC retention time in data set [1] is 4.46 min; in data set [2], 5.29 min; in data set [3], 4.18 min; in data set [4], 4.54 min.

On to `Cc1cccc(C)c1OCC(=O)NC(Cc1ccccc1)C(O)CC(Cc1ccccc1)NC(=O)C(C(C)C)N1CCCNC1=O` (stereo not drawn) [Lopinavir], for which the LC retention time is 15.4 min in data set [1], 14.4 min in data set [2], 11 min in data set [3] and 11.8 min in data set [4].

`NC1Cc2cc3c(cc2C1)OCO3` [MDAI]: the LC retention time is 3.47 min in data set [1], 2.34 min in data set [2], 2.95 min in data set [3] and 3.81 min in data set [4].

In the case of `CC(N)Cc1ccc2c(c1)OCO2` (stereo not drawn) [MDA], the LC retention time in data set [1] is 3.96 min; in data set [2], 3.36 min; in data set [3] it was 3.46 min; in data set [4], 4.19 min.

For the compound `CC12CC3CC(C)(C1)CC(N)(C3)C2` [Memantine], the LC retention time in data set [1] is 6.63 min; in data set [2], 8.04 min; in data set [3] it was 5.86 min; in data set [4], 6.91 min.

Consider `COP(N)(=O)SC` (stereo not drawn) [Methamidophos], for which the LC retention time is 2.61 min in data set [1], 1.18 min in data set [2], 1.34 min in data set [3] and 2.76 min in data set [4].

`COCCc1ccc(OCC(O)CNC(C)C)cc1` (stereo not drawn) [Metoprolol]: the LC retention time in data set [1] was 4.94 min; in data set [2], 6.53 min; in data set [3] it was 4.79 min; in data set [4], 4.93 min.

For `CN1CCC23c4c5ccc(O)c4OC2C(O)C=CC3C1C5` (stereo not drawn) [Morphine (MOR)], the LC retention time in data set [1] is 2.11 min; in data set [2], 1.21 min; in data set [3], 1.47 min; in data set [4], 2.54 min.

On to `NC(=O)c1cccnc1` [Nicotinamide], for which the LC retention time in data set [1] was 1.69 min; in data set [2], 1.06 min; in data set [3] it was 1.2 min; in data set [4] it was 2.73 min.

On to `CN1CCCC1c1cccnc1` (stereo not drawn) [Nicotine], for which the LC retention time was 1.34 min in data set [1], 1.03 min in data set [2], 1.17 min in data set [3] and 2.41 min in data set [4].

Regarding `CCCCC(CC)COC(=O)C(C#N)=C(c1ccccc1)c1ccccc1` (stereo not drawn) [Octocrylene], the LC retention time was 18 min in data set [1], 19.8 min in data set [2], 15.3 min in data set [3] and 13.4 min in data set [4].

In the case of `CC(=O)Nc1ccc(O)cc1` [Paracetamol], the LC retention time in data set [1] is 3.52 min; in data set [2] it was 1.59 min; in data set [3] it was 2 min; in data set [4], 3.48 min.

As to `CCOc1ccc(NC(C)=O)cc1` [Phenacetin], the LC retention time in data set [1] was 6.82 min; in data set [2] it was 7.53 min; in data set [3] it was 5.58 min; in data set [4] it was 5.93 min.

With `NC(=O)c1ccccc1Oc1ccccc1` [Phenoxybenzamide], the LC retention time is 9.15 min in data set [1], 11.5 min in data set [2], 8.66 min in data set [3] and 7.79 min in data set [4].

Take `O=P(Oc1ccccc1)(Oc1ccccc1)Oc1ccccc1` [Phosphate-Triphenyl]: the LC retention time in data set [1] was 14.3 min; in data set [2] it was 15.5 min; in data set [3], 11.8 min; in data set [4] it was 11 min.

Turning to `CCOP(=O)(OCC)OCC` [Phosphate-triethyl], the LC retention time in data set [1] was 6.94 min; in data set [2], 7.31 min; in data set [3], 5.48 min; in data set [4], 6.16 min.

With `CCOC(=O)c1ccccc1C(=O)OCC` [Phthalate-Diethyl], the LC retention time is 10.2 min in data set [1], 12.2 min in data set [2], 9.21 min in data set [3] and 8.5 min in data set [4].
